From patent publication US20230044690A1, “PROGESTERONE FORMULATION TO TRIGGER OVULATION AND PROVIDE LUTEAL PHASE SUPPORT” (AUGUSTA UNIVERSITY RESEARCH INSTITUTE, INC., priority 2019, published 2023)
Read-outs that look alike come from different tables or passages of the source.

How the values were obtained:
[1] = circulating progestins, compared by activity with 0.5 ng preovulatory progesterone; cited from earlier work
gonadotropins surge [2] = conditions: cited from earlier work
gonadotropins surge [3] = experiment: Reported progesterone dose and pharmacodynamics for induction of a gonadotropins surge (Leyendecker et al, 1972); format: in vivo, human; conditions: about 5 mg of progesterone in sesame oil, intramuscular injection; estimate from Leyendecker 1972
Procedure: The lowest dose of progesterone reported for induction of a gonadotropins surge is […] injected intramuscularly (Leyendecker, et al, 1972).
Consequently, the target cumulative progesterone level in circulation was 1 ng/ml. Based on pharmacodynamics of progesterone (Leyendecker, et al, 1972), it was estimated that in order to achieve circulating progesterone level at its peak (120 minutes post injection) 1 ng/ml, an additional […] was needed to add to the patient's own 0.63 ng/ml. This would be achieved with about 5 mg of progesterone in sesame oil for intramuscular injection. […] Furthermore, progesterone continued to rise to the expected level several days later. The patient's P4 level on day 5 post trigger was excellent and additional supplementation with progesterone thereafter was given only for an abundance of caution.

ovulation [4] = format: in vivo, human; conditions: case 3
Procedure: A person, G2 P1, SAB1, height 152 cm, weight 164 lb was referred for infertility treatment following 6-month inability to conceive naturally. Patient's medical history was significant for PCOS and subclinical hypothyroidism, for which they were taking levothyroxine […]. Patient had menarche at 12, average period duration of 45 days, average menses duration of 6 days. Patient's fallopian tubes were both patent per HSG, with a normal uterine cavity (FIG. 6E). Their AMH was 9.3 ng/ml.
The medication regiment, at the beginning of the third attempt was the same as in the previous attempt when the patient became pregnant with 5 mg of Letrozole in addition to 100 mg CC for 5 days starting on the 3rd day of their period. […] Before the trigger […] P4 and LH were 0.62 ng/ml and 4.26 IU/L respectively (Table 3) and ultrasound identified three follicles 22, 22 and 19 mm (FIG. 6C-6D).
Seven days after the trigger shot, P4 level was 38.39 ng/ml at which time the patient was started on 200 mg progesterone vaginal suppository daily.

ovulation [5] = format: in vivo, human
Procedure: For the natural cycle, they were monitored with ultrasound at the base line on day 2, and then day 12 and 13. At day 13 of the cycle, their leading follicle had reached a size of 17 mm (FIG. 4B), P4 was 1.5 ng/ml and LH was 5 IU/L. They were given an intramuscular injection of 5 mg of progesterone. The protocol is outlined in FIG. 4A
Failure of the follicle to rupture was attributed to its size (17 mm) at the time of the trigger.

In the case of C#CC1(O)CC[C@H]2[C@@H]3CCC4=CC(=O)CC[C@@H]4[C@H]3CC[C@@]21CC (mixture of isomers) [D/L norgestrel], the Consensus value [1] is given as 0.075 mg.
For CC(=O)[C@H]1CC[C@H]2[C@@H]3C=CC4=CC(=O)CC[C@@]4(C)[C@@H]3CC[C@]12C [Dydrogesterone], the Consensus value [1] is given as 10 mg.
In the case of CC(=O)O[C@]1(C(C)=O)CC[C@H]2[C@@H]3C[C@H](C)C4=CC(=O)CC[C@]4(C)[C@H]3CC[C@@]21C [Medroxyprogesterone acetate], the Consensus value [1] is given as 5 mg.
For C#C[C@]1(O)CC[C@H]2[C@@H]3CCC4=CC(=O)CC[C@@H]4[C@H]3CC[C@@]21C [Norethindrone], the Consensus value [1] is listed as 0.35 mg.
In the case of CC(=O)[C@H]1CC[C@H]2[C@@H]3CCC4=CC(=O)CC[C@]4(C)[C@H]3CC[C@]12C [progesterone], the “Lowest dose reported for induction of a gonadotropins surge” value (gonadotropins surge [2]; injected intramuscularly) is listed as 10 mg, the “Time of peak circulating progesterone level post injection” value (gonadotropins surge [2]; intramuscular injection) is listed as 120 min and the “Estimated additional circulating progesterone level at its peak” value (gonadotropins surge [3]) is listed as 0.35 ng/mL. It also gave an LH (ovulation [4]; 17 hours 30 minutes after trigger shot, 5 mg progesterone in oil) of 37.01 IU/L, an LH (ovulation [4]; First follicular ultrasound, before trigger shot) of 9.47 IU/L and an LH (ovulation [4]; Stimulation day 10, before trigger shot) of 5.09 IU/L. For the same compound, the “Ultrasound observation: uterine lining” value (ovulation [4]; day 3 after trigger shot) was “lining - 15.2 mm”, the P4 level (ovulation [4]; day 5 post trigger) was “excellent” and the LH (ovulation [4]; day of progesterone trigger shot (stimulation day 12), before the trigger) was 4.26 IU/L. The “Ultrasound observation: uterine lining” value (ovulation [4]; day of progesterone trigger shot, before the trigger) was 10C-10D) Uterine lining 8.8 mm, the Pregnancy outcome (ovulation [4]; period 2 weeks later, 200 mg progesterone vaginal suppository daily from day 7) was “no pregnancy occurred” and the “Circulating hormone level LH” value (ovulation [5]; 0 hrs after trigger injection, 5 mg progesterone i.m., case 1) was 10.9. The Follicle rupture (ovulation [5]; 17 mm leading follicle at trigger, 5 mg progesterone i.m., case 1) was “failed to rupture”, the “Circulating hormone level LH” value (ovulation [5]; 10 hrs after trigger injection, 5 mg progesterone i.m., case 1) was 28.4 and the “Circulating hormone level LH” value (ovulation [5]; 49 hrs after trigger injection, 5 mg progesterone i.m., case 1) was 11.36. For the same compound, the “Time until LH was at the ovulation level” value (ovulation [5]; after 5 mg progesterone i.m., case 1) was at most 12 h, the LH (ovulation [5]; day 13 of the cycle, before the progesterone injection, case 1) was 5 IU/L and the P4 (ovulation [5]; female, human, in vivo) was 1.5 ng/mL.
